# Like-named read-outs stand apart in the source and are kept apart here.
# Experiments:
# [1] = target: human α2β3γ2 GABAARs (benzodiazepine site) (Homo sapiens (Human), UniProt P18507+P47869); assay: In vitro radioligand binding assay ([3H]Ro15-1788 displacement), α2-GABAAR Ki
# How it was run: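 Ki derived via Cheng-Prusoff from IC50 for displacement of 4 nM [3H]Ro15-1788 (Kd from saturation binding), with 1-3 μM TP003 defining nonspecific binding. Incubation lasted 1 h at 4° C on membranes of induced L(tk−) cells stably transfected with the human subunits; detection by filtration and scintillation counting.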
# [2] = target: human α3β3γ2 GABAARs (benzodiazepine site) (Homo sapiens (Human), UniProt P18507+P34903); assay: In vitro radioligand binding assay ([3H]Ro15-1788 displacement), α3-GABAAR Ki; settings: L(tk-) cell membranes, 4 nM [3H]Ro15-1788
# Description: The affinity (Ki) of compounds for the benzodiazepine site of human recombinant GABAARs was measured by their ability to inhibit the binding of the selective benzodiazepine antagonist [^3H]Ro15-1788 ([^3H] flumazenil).
# Mouse L(tk^−) cells stably expressing human α1β3γ2, α2β3γ2, α3β3γ2, α5β3γ2 GABAARs were generated by transfection of the individual subunits in the dexamethasone-inducible expression vector pMSGneo in mouse L(tk^−) cells (Hadingham et al., 1993, Mol. Pharmacol. 43:970-975 and 1993, Mol. Pharmacol. 44:1211-1218).
# L(tk^−) cells stably expressing human α1β3γ2, α2β3γ2, α3β3γ2, α5β3γ2 GABAARs were maintained in DMEM F12 medium supplemented with 10% Foetal Bovine Serum, 1% Penicillin/Streptomycin and 1 mg/mL Geneticin G418 in an incubator at 37° C. with a humidified atmosphere with 5% CO2. Dexamethasone was added to the culture medium to induce GABAAR expression.
# L(tk−) cells were harvested and membranes were prepared for each receptor combination in either TE buffer (10 mM Tris·CI/0.1 mM EDTA, pH 7.5) or phosphate buffer (K2PO4 10 mM, pH 7.0) (Hadingham et al. (1992) Proc. Natl. Acad. Sci. USA; 89 (14): 6378-82). Protein concentration, receptor expression and the Kd of [^3H]Ro15-1788 were determined before Ki value of the compounds were evaluated. For Kd evaluation, saturation binding curves were obtained by incubating membrane with various concentrations of [^3H]Ro15-1788 (82.5 Ci/mM), with nonspecific binding measured in the presence of 1-3 μM TP003.
# For Ki evaluation, cell membranes were incubated with 4 nM [^3H]Ro15-1788 along with a range of concentrations of test compound. Nonspecific binding was determined using 1-3 μM TP003. All incubations were performed for 1 hour at 4° C. in assay buffer. The total assay volume was 0.5 mL, containing 40 μg/well α1β3γ2, 30 μg/well α2β3γ2, 40 μg/well α3β3γ2 and 30 μg/well for α5β3γ2 of membrane protein. Incubations were terminated by filtration and washing with ice cold Tris-HCl buffer (50 mM, pH=7.4) over Whatman GF/B filters and the radioactivity of the filters was measured using liquid scintillation counting.
# The % inhibition of [^3H]Ro15-1788 binding was plotted as a function of compound concentration and the IC50 calculated. From the IC50, the affinity (Ki) was calculated using the method of Cheng and Prusoff using the Kd values obtained for [^3H]Ro15-1788.
# human α2β3γ2 GABAARs = assay: In vitro electrophysiological recording assay (automated patch-clamp), α2-GABAAR relative efficacy; type: cell-based; settings: % efficacy normalised to diazepam; GABA EC10-20; concentration generally >= 100 times Ki
# How it was run: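 Relative efficacy is % enhancement of the leak-subtracted GABA EC10-20 peak current, divided by the separately measured diazepam value; compound generally tested at ≥100× Ki after ≥1 min pre-application. Recordings at room temperature, human receptors stably expressed in L(tk^−) (QPatch, −65 mV) or HEK293 (SyncroPatch, −80 mV) cells.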
# human α2β3γ2 GABAARs (benzodiazepine site), sequence (P47869 29-451): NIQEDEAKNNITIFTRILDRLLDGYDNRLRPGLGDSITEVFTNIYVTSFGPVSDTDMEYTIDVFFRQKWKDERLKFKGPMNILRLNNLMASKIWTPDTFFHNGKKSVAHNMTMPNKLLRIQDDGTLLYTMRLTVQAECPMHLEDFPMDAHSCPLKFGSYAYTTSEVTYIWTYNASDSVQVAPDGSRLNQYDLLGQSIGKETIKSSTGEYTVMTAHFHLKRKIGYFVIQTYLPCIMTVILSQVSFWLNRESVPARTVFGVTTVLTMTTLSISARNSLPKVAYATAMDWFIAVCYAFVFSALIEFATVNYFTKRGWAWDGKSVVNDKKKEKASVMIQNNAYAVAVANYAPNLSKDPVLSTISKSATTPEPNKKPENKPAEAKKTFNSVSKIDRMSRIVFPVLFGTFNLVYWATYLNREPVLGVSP
# human α2β3γ2 GABAARs (benzodiazepine site), sequence (P28472 26-473 partner): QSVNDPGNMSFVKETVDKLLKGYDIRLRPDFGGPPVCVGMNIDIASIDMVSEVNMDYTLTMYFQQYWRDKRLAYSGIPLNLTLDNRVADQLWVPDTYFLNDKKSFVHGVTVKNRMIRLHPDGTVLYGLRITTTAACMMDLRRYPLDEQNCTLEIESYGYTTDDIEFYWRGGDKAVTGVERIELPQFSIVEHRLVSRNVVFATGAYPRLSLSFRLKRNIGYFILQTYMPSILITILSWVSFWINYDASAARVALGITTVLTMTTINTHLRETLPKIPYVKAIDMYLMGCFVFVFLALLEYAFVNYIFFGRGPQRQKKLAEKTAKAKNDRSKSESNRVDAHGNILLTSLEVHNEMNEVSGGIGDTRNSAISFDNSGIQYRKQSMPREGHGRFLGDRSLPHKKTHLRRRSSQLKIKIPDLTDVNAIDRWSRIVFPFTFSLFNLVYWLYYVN
# human α2β3γ2 GABAARs (benzodiazepine site), sequence (P18507 40-475): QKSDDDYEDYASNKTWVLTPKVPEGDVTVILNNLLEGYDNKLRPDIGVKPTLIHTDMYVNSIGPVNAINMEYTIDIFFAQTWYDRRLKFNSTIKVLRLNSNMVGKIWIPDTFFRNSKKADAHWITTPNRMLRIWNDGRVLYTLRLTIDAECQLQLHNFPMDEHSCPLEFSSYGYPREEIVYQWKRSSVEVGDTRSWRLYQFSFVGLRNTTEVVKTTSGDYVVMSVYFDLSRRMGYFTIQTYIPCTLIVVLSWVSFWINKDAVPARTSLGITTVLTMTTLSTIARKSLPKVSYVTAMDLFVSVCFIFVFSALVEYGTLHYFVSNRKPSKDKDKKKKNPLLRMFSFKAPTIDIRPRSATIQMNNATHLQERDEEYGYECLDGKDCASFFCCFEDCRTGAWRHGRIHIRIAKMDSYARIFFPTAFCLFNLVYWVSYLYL
Structure (SMILES),Ki [1] [nM],Ki [2] [nM],α2-GABAAR Relative Efficacy (vs. Diazepam) (human α2β3γ2 GABAARs),"Ki ([1]; L(tk-) cell membranes, 4 nM [3H]Ro15-1788, read-out: α2-GABAAR Ki) [nM]"
"CCCNC(=O)c1c(N)c2cccc(-c3cccnc3OC)c2[nH]c1=O [Example 14, 4-Amino-8-(2-methoxypyridin-3-yl)-2-oxo-N-propyl-1,2-dihydroquinoline-3-carboxamide]",2.13,6.02,0.45,–
"CCCNC(=O)c1c(N)c2cccc(-c3cncc(OC)c3)c2[nH]c1=O [Example 23, 4-Amino-8-(5-methoxy-3-pyridyl)-2-oxo-N-propyl-1H-quinoline-3-carboxamide]",2.31,7.21,0.33,–
"CCCNC(=O)c1c(N)c2cccc(-c3cc(OCc4nnc(C(F)(F)F)o4)ccc3F)c2[nH]c1=O [Example 132, 4-Amino-8-[2-fluoro-5-[[5-(trifluoromethyl)-1,3,4-oxadiazol-2-yl]methoxy]phenyl]-2-oxo-N-propyl-1H-quinoline-3-carboxamide]",0.66,1.19,0.24,–
"CCCNC(=O)c1c(N)c2cccc(-c3cncc(OC(C)C)c3)c2[nH]c1=O [Example 27, 4-Amino-8-(5-isopropoxypyridin-3-yl)-2-oxo-N-propyl-1,2-dihydroquinoline-3-carboxamide]",22.7,10.6,0.28,–
"CCCNC(=O)c1c(N)c2cccc(-c3ncccc3C)c2[nH]c1=O [Example 5, 4-Amino-8-(3-methylpyridin-2-yl)-2-oxo-N-propyl-1,2-dihydroquinoline-3-carboxamide]",5.66,16.1,0.42,–
"CCCNC(=O)c1c(N)c2cccc(-c3cc(OCc4coc(C)n4)ccc3F)c2[nH]c1=O [Example 122, 4-Amino-8-(2-fluoro-5-((2-methyloxazol-4-yl)methoxy)phenyl)-2-oxo-N-propyl-1,2-dihydroquinoline-3-carboxamide]",0.89,3.56,0.33,–
"CCCNC(=O)c1c(N)c2cccc(-c3cc(F)ccn3)c2[nH]c1=O [Example 4, 4-Amino-8-(4-fluoro-2-pyridyl)-2-oxo-N-propyl-1H-quinoline-3-carboxamide]",1.26,1.65,0.40,–
"CCCNC(=O)c1c(N)c2cccc(-c3cc(OCc4cncnc4)ccc3F)c2[nH]c1=O [Example 107, 4-Amino-8-[2-fluoro-5-(pyrimidin-5-ylmethoxy)phenyl]-2-oxo-N-propyl-1H-quinoline-3-carboxamide]",0.2,–,0.17,–
"CCCNC(=O)c1c(N)c2cccc(-c3cc(OCc4cn(C)nn4)ccc3F)c2[nH]c1=O [Example 129, 4-Amino-8-[2-fluoro-5-[(1-methyltriazol-4-yl)methoxy]phenyl]-2-oxo-N-propyl-1H-quinoline-3-carboxamide]",0.65,–,0.25,–
"CCCNC(=O)c1c(N)c2cccc(-c3cc(OCc4ncccc4C)ccc3F)c2[nH]c1=O [Example 103, 4-Amino-8-[2-fluoro-5-[(3-methyl-2-pyridyl)methoxy]phenyl]-2-oxo-N-propyl-1H-quinoline-3-carboxamide]",1.68,–,0.37,–
"CCCNC(=O)c1c(N)c2cccc(-c3cc(CN4CC5(CCN(C)CC5)C4)ccc3F)c2[nH]c1=O [Example 140, 4-Amino-8-(2-fluoro-5-((7-methyl-2,7-diazaspiro[3.5]nonan-2-yl)methyl)phenyl)-2-oxo-N-propyl-1,2-dihydroquinoline-3-carboxamide]",1.88,–,0.34,–
"CCCNC(=O)c1c(N)c2cccc(-c3cccc(OCc4ccc(F)cn4)c3)c2[nH]c1=O [Example 94, 4-Amino-8-[3-[(5-fluoro-2-pyridyl)methoxy]phenyl]-2-oxo-N-propyl-1H-quinoline-3-carboxamide]",2.42,–,0.28,–
"COc1ccncc1-c1cccc2c(N)c(C(=O)NCC(C)C)c(=O)[nH]c12 [Example 60, 4-Amino-N-isobutyl-8-(4-methoxy-3-pyridyl)-2-oxo-1H-quinoline-3-carboxamide]",15.4,–,0.65,–
"CCCNC(=O)c1c(N)c2cccc(-c3ncc(F)cc3F)c2[nH]c1=O [Example 6, 4-Amino-8-(3,5-difluoro-2-pyridyl)-2-oxo-N-propyl-1H-quinoline-3-carboxamide]",0.87,–,0.10,–
"Cc1nn(C)cc1-c1cccc2c(N)c(C(=O)NCC3CC3)c(=O)n(C)c12 [Example 81, 4-Amino-N-(cyclopropylmethyl)-8-(1,3-dimethylpyrazol-4-yl)-1-methyl-2-oxo-quinoline-3-carboxamide]",2.19,–,0.81,–
"CCCNC(=O)c1c(N)c2cccc(-c3cc(OCc4ccc(Cl)cn4)ccc3F)c2[nH]c1=O [Example 97, 4-Amino-8-[5-[(5-chloro-2-pyridyl)methoxy]-2-fluoro-phenyl]-2-oxo-N-propyl-1H-quinoline-3-carboxamide]",0.72,–,0.25,–
"CCCNC(=O)c1c(N)c2cccc(-c3cccc(OC)c3)c2[nH]c1=O [Example 48, 4-Amino-8-(3-methoxyphenyl)-2-oxo-N-propyl-1H-quinoline-3-carboxamide]",1.84,–,0.39,–
"CCCNC(=O)c1c(N)c2cccc(-c3cnccc3OC(C)C)c2[nH]c1=O [Example 20, 4-Amino-8-(4-isopropoxypyridin-3-yl)-2-oxo-N-propyl-1,2-dihydroquinoline-3-carboxamide]",–,–,0.16,245
"COc1ccncc1-c1cccc2c(N)c(C(=O)NCCO)c(=O)[nH]c12 [Example 64, 4-Amino-N-(2-hydroxyethyl)-8-(4-methoxy-3-pyridyl)-2-oxo-1H-quinoline-3-carboxamide]",84.6,–,0.34,–
"CCCNC(=O)c1c(N)c2cccc(-c3cc(OCc4cc(CO)ccn4)ccc3F)c2[nH]c1=O [Example 102, 4-Amino-8-(2-fluoro-5-((4-(hydroxymethyl)pyridin-2-yl)methoxy)phenyl)-2-oxo-N-propyl-1,2-dihydroquinoline-3-carboxamide]",0.7,–,0.33,–
"CCCNC(=O)c1c(N)c2cccc(-c3cnccc3COC)c2[nH]c1=O [Example 21, 4-Amino-8-(4-(methoxymethyl)pyridin-3-yl)-2-oxo-N-propyl-1,2-dihydroquinoline-3-carboxamide]",29.8,–,0.12,–
"COc1ccncc1-c1cccc2c(N)c(C(=O)NCC(C)C)c(=O)n(C)c12 [Example 79, 4-Amino-N-isobutyl-8-(4-methoxy-3-pyridyl)-1-methyl-2-oxo-quinoline-3-carboxamide]",2.51,–,0.81,–
"CCCNC(=O)c1c(N)c2cccc(-c3c(C)noc3C)c2[nH]c1=O [Example 54, 4-Amino-8-(3,5-dimethylisoxazol-4-yl)-2-oxo-N-propyl-1H-quinoline-3-carboxamide]",20,–,0.07,–
"CCCNC(=O)c1c(N)c2cccc(-c3nc(N)ncc3F)c2[nH]c1=O [Example 41, 4-Amino-8-(2-amino-5-fluoropyrimidin-4-yl)-2-oxo-N-propyl-1,2-dihydroquinoline-3-carboxamide]",0.4,–,0.13,–
